Experiment [1] concerns phospho-ERK in GP2D (KRAS-G12D) cells. Briefly: pERK In Cell Western (ICW) assay (Method B), GP2D. Particulars: GP2d, 3 h, Table 4. The experiment is classed as cell-based. The procedure, abridged: (§1)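 Per well, infrared pERK immunofluorescence was divided by DRAQ5 nuclear signal following 3 h treatment with a 9-point, ½-log compound series; seeding was 5,000 (AGS) or 10,000 (GP2D, SW620) cells per well. Percent-of-blank data were fitted to a four-parameter model for IC50.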

For the next experiment, the target named is T1, NRAS/RAF1 (Homo sapiens, UniProt P01111).
T1 construct: (1-169); His6-SUMO (N, cleaved yes)
T1 sequence (P01111 with tags, fused parts or gaps): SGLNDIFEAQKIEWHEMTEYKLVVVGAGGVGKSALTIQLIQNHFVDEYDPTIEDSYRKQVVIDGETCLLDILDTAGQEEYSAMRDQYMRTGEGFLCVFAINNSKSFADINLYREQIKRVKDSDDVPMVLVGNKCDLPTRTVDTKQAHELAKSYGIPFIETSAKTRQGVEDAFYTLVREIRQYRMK
Briefly: Protein-protein interaction (PPI) HTRF assay w.t. NRAS/RAF1. The experiment is classed as binding. Particulars: Table 3; wt NRAS/RAF1. As to the method: When RAS proteins are in the active GTP-bound conformation, they bind the effector protein RAF1 at the N-terminus Ras-binding domain (RBD, residues 52-131) (Tran, et al., 2021). Homogenous time resolved fluorescence (HTRF) was used to monitor the interaction between wt or mutant KRAS and RAF1 or wt NRAS and RAF1. Compounds were assayed in the presence of KRAS G12D/V and RAF1 versus wt KRAS to assess activity against mutant and w.t. KRAS. Similarly, compounds were then assayed in the presence of w.t. NRAS and RAF1 to assess RAS isoform selectivity. In all assay formats, His-tagged RAF1 protein was incubated with the HTRF donor, anti-6His Tb Cryptate gold (Cisbio 61DB10RDF), and biotinylated RAS proteins were incubated with the HTRF acceptor, streptavidin-d2 (CisBio 610SADLA). The intensity of the fluorescence signal emitted is proportional to binding between the two proteins. The donor solution was prepared by mixing 16 nM His-tagged RAF1 in protein dilution buffer with 1:100 anti-6His Tb cryptate in PPI-Terbium detection buffer. 16 nM biotinylated RAS protein was diluted into protein dilution buffer (50 mM Tris-HCl pH 7.5, 150 mM NaCl, 0.1 mM MgCl2, 1 mM TCEP, 0.005% Tween20) and mixed with 1:2000 Streptavidin-d2 diluted in PPI-Terbium detection buffer (CisBio 61DB10RDF). 50× compound in DMSO was mixed with 16 nM KRAS-acceptor solution and incubated for 30 minutes at room temperature. After compound pre-incubation with KRAS, the RAF1 donor solution was added to the KRAS-acceptor solution and incubated for 1 hour at room temperature. The fluorescence signal emitted was monitored at 665 nm and 615 nm using an Envision multimode plate reader. The HTRF ratio (665/615) was calculated and normalized to 0% inhibition in the absence of compound and 100% inhibition in the presence of untagged RAF1 protein. PPI KRAS G12D/RAF1, KRAS G12V/RAF1, w.t. KRAS/RAF1 and NRAS/RAF1 IC50 (uM) values of selected compounds are depicted in Table 3 and Table 4 with compounds having a value <0.1 uM as ++++; ≥0.1 uM to 1 uM as +++; ≥1 uM to 10 uM as ++; ≥10 uM to 100 uM as +; and ≥100 uM as NA.
(In general: Time-resolved FRET reads energy transfer from a long-lived donor to a nearby acceptor.)

Experiment [2] deals with phospho-ERK in SW620 (KRAS-G12V) cells. Briefly: pERK In Cell Western (ICW) assay (Method B), SW620. Particulars: Homo sapiens, SW-620, 3 h, Table 4. Type of experiment: cell-based. The procedure, abridged:
as §1

For the next experiment, the system named is phospho-ERK in AGS cells. Briefly: pERK In Cell Western (ICW) assay (Method B), AGS. The experiment is classed as cell-based. The conditions noted are these: Homo sapiens, Table 2, 3 hours. The procedure, abridged: as §1

Molecules are shown by their SMILES. Where only a bound is given, the exact number is not on record here.

The IC50 is the concentration needed to halve the response being measured.

On to `C[C@@]1(O)CCCN(c2nc(OC[C@@]34CCCN3C[C@H](F)C4)nc(N3CC4(CCc5sc(N)c(C#N)c54)C3)n2)C1` [Compound 10, 2-amino-1′-[4-[[(2R,8S)-2-fluoro-1,2,3,5,6,7-hexahydropyrrolizin-8-yl]methoxy]-6-[(3R)-3-hydroxy-3-methyl-1-piperidyl]-1,3,5-triazin-2-yl]spiro[5,6-dihydrocyclopenta[b]thiophene-4,3′-azetidine]-3-carbonitrile], for which the IC50 in experiment [1] is 10 to 100 nM; on NRAS/RAF1 it was more than 100 µM; in experiment [2], 100 to 1000 nM; in the experiment with phospho-ERK in AGS cells, 0.1 to 1 µM.
Take `N#Cc1c(N)sc2c1C1(CC2)CN(c2nc(OCC34CCCN3CC(F)C4)nc(N3CC4CCC(C3)N4)n2)C1` [Compound 1, 2-amino-1′-[4-(3,8-diazabicyclo[3.2.1]octan-3-yl)-6-[[(2R,8S)-2-fluoro-1,2,3,5,6,7-hexahydropyrrolizin-8-yl]methoxy]-1,3,5-triazin-2-yl]spiro[5,6-dihydrocyclopenta[b]thiophene-4,3′-azetidine]-3-carbonitrile]: the IC50 in experiment [1] was 10 to 100 nM; on NRAS/RAF1 it was more than 100 µM; with phospho-ERK in AGS cells it was 0.1 to 1 µM.
With `N#Cc1c(N)sc2c1C1(CC2)CN(c2nc(OC[C@@]34CCCN3C[C@H](F)C4)nc(N3CCCC(C#N)C3)n2)C1` (stereo partly drawn) [Compound 13, 2-amino-1′-[4-(3-cyano-1-piperidyl)-6-[[(2R,8S)-2-fluoro-1,2,3,5,6,7-hexahydropyrrolizin-8-yl]methoxy]-1,3,5-triazin-2-yl]spiro[5,6-dihydrocyclopenta[b]thiophene-4,3′-azetidine]-3-carbonitrile], the IC50 was 100 to 1000 nM in experiment [1], 100 to 1000 nM in experiment [2] and 1 to 10 µM in the experiment with phospho-ERK in AGS cells.
Take `N#Cc1c(N)sc2c1C1(CC2)CN(c2nc(OCC3(CN4CCOCC4)CC3)nc(N3C[C@H]4CC[C@@H](C3)N4)n2)C1` [Compound 2, 2-amino-1′-[4-[[1-(morpholinomethyl)cyclopropyl]methoxy]-6-[(1R,5S)-3,8-diazabicyclo[3.2.1]octan-3-yl]-1,3,5-triazin-2-yl]spiro[5,6-dihydrocyclopenta[b]thiophene-4,3′-azetidine]-3-carbonitrile]: the results for the IC50 (in experiment [1]; on NRAS/RAF1; in the experiment with phospho-ERK in AGS cells) were 10 to 100 nM, more than 100 µM and 0.1 to 1 µM, respectively.
Take `N#Cc1c(N)sc2c1C1(CC2)CN(c2nc(OCC3(CN4CCOCC4)CC3)nc(N3CCCC4(C3)NC(=O)NC4=O)n2)C1` (stereo not shown) [Compound 7, 2-amino-1′-[4-(2,4-dioxo-1,3,9-triazaspiro[4.5]decan-9-yl)-6-[[1-(morpholinomethyl)cyclopropyl]methoxy]-1,3,5-triazin-2-yl]spiro[5,6-dihydrocyclopenta[b]thiophene-4,3′-azetidine]-3-carbonitrile]: the IC50 was 1000 to 20000 nM in experiment [1], more than 100 µM against NRAS/RAF1 and 1000 to 20000 nM in experiment [2].
As for `N#Cc1c(N)sc2c1C1(CCC2)CN(c2nc(OCC3(CN4CCOCC4)CC3)nc(N3C[C@H]4CC[C@@H](C3)N4)n2)C1` [Compound 3, 2-amino-1′-[4-[(1R,5S)-3,8-diazabicyclo[3.2.1]octan-3-yl]-6-[[1-(morpholinomethyl)cyclopropyl]methoxy]-1,3,5-triazin-2-yl]spiro[6,7-dihydro-5H-benzothiophene-4,3′-azetidine]-3-carbonitrile], the IC50 in experiment [1] is 10 to 100 nM; on NRAS/RAF1 it was more than 100 µM; with phospho-ERK in AGS cells it was 0.1 to 1 µM.

These data come from patent US12421254B2, “KRAS modulators and uses thereof” (Quanta Therapeutics, Inc., priority 2023, dated 2025).
